{"source": "patent US8980874B2", "about": "“Method and composition for treating diabetic ketoacidosis” (Midwestern University, priority 2009, dated 2015)", "origin": "cited, not measured here", "key": {"[1]": {"test_system": "rat model of embolic stroke", "conditions": "rat model of embolic stroke where rtPA was used; cited from earlier work"}, "BBB permeability": {"test_system": "BBB permeability", "conditions": "repeated intracisternal administration of ET-1 in dogs and rats; cited from earlier work"}}}
{"compound": "CC1(C)CC[C@]2(C(=O)[O-])CC[C@]3(COC(=O)/C=C/c4cc([O-])ccc4NC(=O)/C=C/C(=O)O)C(=CC[C@@H]4[C@@]5(C)CCC(=O)C(C)(C)[C@@H]5CC[C@]43C)[C@@H]2C1.[Na+].[Na+]", "note": "[S-0139]", "values": [{"measurement": "neuroprotection / rtPA evoked disruption of BBB", "setting": "[1]", "value": "provided neuroprotection by suppressing rtPA evoked disruption of BBB"}, {"measurement": "effect on ET-1 induced increase in BBB permeability", "setting": "BBB permeability", "value": "blocked"}]}
